Test results taken from paper PMC9061857, “A fluorogenic probe for granzyme B enables in-biopsy evaluation and screening of response to anticancer immunotherapies” (Nature Communications, 2022).
Where no end group is shown, it is not given here.

Assays:
human GzmB (hGzmB) [1] = target: T1, human GzmB (hGzmB) (Homo sapiens, UniProt P10144); assay: Fluorescence assay with recombinant hGzmB (fluorogenic response, time course); type: biochemical; settings: for t50: probe 25 μM, hGzmB 20 nM
T1 construct: For active GzmB vs pro-GzmB, p < 0.0001
T1 sequence (P10144 21-247): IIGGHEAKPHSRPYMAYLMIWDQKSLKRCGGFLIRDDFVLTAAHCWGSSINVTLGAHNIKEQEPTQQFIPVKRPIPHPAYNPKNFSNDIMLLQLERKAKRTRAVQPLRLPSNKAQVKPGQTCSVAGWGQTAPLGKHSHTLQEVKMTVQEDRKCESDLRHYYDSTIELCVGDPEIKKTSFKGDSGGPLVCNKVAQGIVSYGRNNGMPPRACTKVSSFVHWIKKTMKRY
Experimental: Fluorescence-based assays with different enzymes were performed in the appropriate buffers. Probes (25 μM) were added to enzymes (20 nM or at the indicated concentrations) in 384-well plates and their fluorescence emission was recorded at 450 nm (for AMC) or 510 nm (for BODIPY) at 37 °C using a Synergy H1 Hybrid spectrophotometer. In experiments with Ac-IEPD-CHO (50 μM), the inhibitor was preincubated for 1 h with GzmB before the addition of any probe.

recombinant human GzmB = target: T2, recombinant human GzmB (Homo sapiens, UniProt P10144); assay: Kinetic measurements (Michaelis-Menten) with recombinant hGzmB; type: biochemical; set-up: cleavage rate of H5 by hGzmB: unit not given here
T2 construct: For active GzmB vs pro-GzmB, p < 0.0001
T2 sequence (P10144 21-247): as above
Experimental: Fluorescence-based assays with different enzymes were performed in the appropriate buffers. […] In experiments with Ac-IEPD-CHO (50 μM), the inhibitor was preincubated for 1 h with GzmB before the addition of any probe.
Supplementary Table 4. Kinetic values determined for hexapeptides H2-H5 against
Probe Sequence kcat kcat / KM

recombinant mouse GzmB = assay: Reactivity against recombinant mouse GzmB (fluorescence); type: biochemical; settings: 25 μM, 90 min, 37 °C
Experimental: and H5m (both at 25 μM) after incubation for 90 min at 37 °C with recombinant mouse
pro-GzmB (100 nM) after pre-activation with mouse cathepsin C (5.5 μg mL-1) for 4 h.
Excitation/emission wavelengths: 450 nm /510 nm. Data presented as mean values±SEM
(3 independent experiments with 3 technical replicates). Source data provided as a […]

hGzmB = assay: Limit of detection of hGzmB by probe fluorescence; type: biochemical, human; settings: H5 25 μM, 37 °C, emission 530 nm, no washing steps (Fig. S4)
Experimental: (§1) Supplementary Figure 1. Reactivity of fluorogenic substrates against human GzmB and limits of detection. a) Reaction conversion rates (by HPLC-UV detection at 350 nm) for Ac-IEPD-AMC (50 μM) in TRIS buffer (see Methods) at 37 °C containing different concentrations of hGzmB. Data presented as mean values±SEM (n=3 independent biological experiments). b) Reaction conversion rates (by HPLC-UV detection at 500 nm) for the tetrapeptide T1 (25 μM) in TRIS buffer at 37 °C containing different concentrations of hGzmB. Data presented as mean values±SEM (3 independent biological experiments).
(§2) Source data provided as a Source Data file.
(§3) (1 picture or pasted object on this page, not shown here)
Supplementary Figure 4. Comparative enzyme selectivity and limit of detection for […]
Ac-IEPD-AMC (all at 25 μM) after incubation for 90 min at 37 °C with hGzmB (light gray bars), human caspase-3 (dark gray bars) and hGzmA (white bars) (all enzymes used at 20 nM). Data presented as mean values±SEM (n=3). Excitation wavelengths: 450 nm (for […]
450 nm (for Ac-IEPD-AMC). b) Limit of detection of hGzmB by fluorescence emission […]
presented as mean values±SD (2 independent experiments with 3 technical replicates).

[2] = test system: EpCAM+ epithelial cells from lung cancer patients; assay: Flow cytometry of paired tumor and non-tumor lung tissue; type: cell-based, human; settings: H5 5 μM, 30 min r.t.
Experimental: Tissue samples of tumor and paired non-tumor (n = 5 for both conditions) lungs were taken from treatment-naïve patients undergoing surgical resection. Participants provided written informed consent and the study was approved by NHS Lothian REC and facilitated by NHS Lothian SAHSC Bioresource (REC No: 15/ES/0094). Fresh samples were minced, incubated with 1 mg mL^−1 collagenase IV, 1 mg mL^−1 DNase 1, 50 U mL^−1 hyaluronidase in DMEM for 1 h at 37 °C with agitation, and passed through 100 and 70 µm filters followed by red cell lysis. […] Cells were washed twice in PBS 2% fetal calf serum (FCS) prior to collection. For microscopy, formalin-fixed paraffin-embedded slides of non-small cell lung cancer and paired non-cancerous lung were deparaffinized, rehydrated, stained with hematoxylin and eosin, followed by dehydration and imaging on a Zeiss AxioScan microscope.
Supplementary Figure 17. Gating strategy for assessing the probe H5 in human lung tissue. All cells were gated to exclude debris and gated on singlets. Leukocytes were excluded on the basis of CD45 positivity, and live EpCAM positive cells were selected by excluding cells stained positive with the Zombie UV viability dye (1:1000 dilution). Probe H5 positivity in the live EpCAM+ population in non-tumor and tumor tissues was assessed against cells stained in the absence of prob e H5 giving a background of <1% positivity.
as §3

human GzmB (hGzmB) [3] = target: T1, human GzmB (hGzmB); assay: HPLC conversion of fluorogenic peptides by hGzmB; type: biochemical
Experimental: as §1, §2, §3
Supplementary Table 1. Chemical structures and reactivity of FRET-based tetrapeptides against human GzmB.
Code Structure Linker Quencher HPLC conversion HPLC conversion […]
Supplementary Table 2. Sequences and reactivity of FRET-based hexapeptides against […]
Code Peptide sequence HPLC conversion
H1 Ile-Glu-Pro-Asp-Ala-Gly 75%
H2 Ile-Glu-Pro-Asp-Ser-Gly 80%
H3 Ile-Glu-Pro-Asp-Ser-Leu 80%
H4 Ile-Glu-Pro-Asp-Trp-Leu 82%
H6 Ile-Glu-Pro-Asp-Trp-Arg 40%
H7 Ile-Glu-Pro-Asp-Arg-Leu 60%
H5m Ile-Glu-Phe-Asp-Ala-Leu 70%

[4] = hGzmB 20 nM, 37 °C, Michaelis-Menten, n = 3

## IEPDAL [H5, FRET hexapeptide IEPDAL with BODIPY-FL fluorophore at the N-terminal end and Dabcyl quencher]
Human GzmB (hGzmB) [1]; caspases, granzymes, MMPs, neutrophil elastase, pro-hGzmB
  specificity for hGzmB over other enzymes: minimal response to other enzymes
Human GzmB (hGzmB) [1]; Data 1
  t50: 7 min
Human GzmB (hGzmB) [1]; Data 2
  t50: 7 min
Human GzmB (hGzmB) [1]; Data 3
  t50: 7 min
Recombinant human GzmB; Supplementary Table 4, recombinant human GzmB
  kcat: 117 s⁻¹
Recombinant human GzmB; [4]
  Km: 9.6 µM
  kcat: 117 s⁻¹
Recombinant human GzmB; hGzmB 20 nM, [H5] 1 uM, Data 1
  cleavage rate of H5 by hGzmB: 8.4
Recombinant human GzmB; hGzmB 20 nM, [H5] 1 uM, Data 2
  cleavage rate of H5 by hGzmB: 5.5
Recombinant human GzmB; hGzmB 20 nM, [H5] 1 uM, Data 3
  cleavage rate of H5 by hGzmB: 6.0
Recombinant human GzmB; hGzmB 20 nM, [H5] 5 uM, Data 1
  cleavage rate of H5 by hGzmB: 48.9
Recombinant human GzmB; hGzmB 20 nM, [H5] 5 uM, Data 2
  cleavage rate of H5 by hGzmB: 44.9
Recombinant human GzmB; hGzmB 20 nM, [H5] 5 uM, Data 3
  cleavage rate of H5 by hGzmB: 43.3
Recombinant human GzmB; hGzmB 20 nM, [H5] 7.5 uM, Data 1
  cleavage rate of H5 by hGzmB: 58.5
Recombinant human GzmB; hGzmB 20 nM, [H5] 7.5 uM, Data 2
  cleavage rate of H5 by hGzmB: 69.9
Recombinant human GzmB; hGzmB 20 nM, [H5] 7.5 uM, Data 3
  cleavage rate of H5 by hGzmB: 72.5
Recombinant human GzmB; hGzmB 20 nM, [H5] 10 uM, Data 1
  cleavage rate of H5 by hGzmB: 75.6
Recombinant human GzmB; hGzmB 20 nM, [H5] 10 uM, Data 2
  cleavage rate of H5 by hGzmB: 81.3
Recombinant human GzmB; hGzmB 20 nM, [H5] 10 uM, Data 3
  cleavage rate of H5 by hGzmB: 63.2
Recombinant human GzmB; hGzmB 20 nM, [H5] 12.5 uM, Data 1
  cleavage rate of H5 by hGzmB: 89.7
Recombinant human GzmB; hGzmB 20 nM, [H5] 12.5 uM, Data 2
  cleavage rate of H5 by hGzmB: 89.4
Recombinant human GzmB; hGzmB 20 nM, [H5] 12.5 uM, Data 3
  cleavage rate of H5 by hGzmB: 82.2
Recombinant human GzmB; hGzmB 20 nM, [H5] 15 uM, Data 1
  cleavage rate of H5 by hGzmB: 88.0
Recombinant human GzmB; hGzmB 20 nM, [H5] 15 uM, Data 2
  cleavage rate of H5 by hGzmB: 88.2
Recombinant human GzmB; hGzmB 20 nM, [H5] 15 uM, Data 3
  cleavage rate of H5 by hGzmB: 73.1
Recombinant human GzmB; hGzmB 20 nM, [H5] 17.5 uM, Data 1
  cleavage rate of H5 by hGzmB: 82.4
Recombinant human GzmB; hGzmB 20 nM, [H5] 17.5 uM, Data 2
  cleavage rate of H5 by hGzmB: 92.3
Recombinant human GzmB; hGzmB 20 nM, [H5] 17.5 uM, Data 3
  cleavage rate of H5 by hGzmB: 81.2
Recombinant human GzmB; hGzmB 20 nM, [H5] 20 uM, Data 1
  cleavage rate of H5 by hGzmB: 100.4
Recombinant human GzmB; hGzmB 20 nM, [H5] 20 uM, Data 2
  cleavage rate of H5 by hGzmB: 99.8
Recombinant human GzmB; hGzmB 20 nM, [H5] 20 uM, Data 3
  cleavage rate of H5 by hGzmB: 89.3
Recombinant mouse GzmB
  response to mouse GzmB: good response
hGzmB
  LoD: 6 pM
[2]; Healthy (non-tumor) tissue, Data 1
  percentage of EpCAM+ H5+ epithelial cells: 10.4%
[2]; Healthy (non-tumor) tissue, Data 2
  percentage of EpCAM+ H5+ epithelial cells: 9.7%
[2]; Healthy (non-tumor) tissue, Data 3
  percentage of EpCAM+ H5+ epithelial cells: 11.0%
[2]; Healthy (non-tumor) tissue, Data 4
  percentage of EpCAM+ H5+ epithelial cells: 6.6%
[2]; Healthy (non-tumor) tissue, Data 5
  percentage of EpCAM+ H5+ epithelial cells: 10.4%
[2]; Tumor tissue, Data 1
  percentage of EpCAM+ H5+ epithelial cells: 19.4%
[2]; Tumor tissue, Data 2
  percentage of EpCAM+ H5+ epithelial cells: 19.1%
[2]; Tumor tissue, Data 3
  percentage of EpCAM+ H5+ epithelial cells: 21.3%
[2]; Tumor tissue, Data 4
  percentage of EpCAM+ H5+ epithelial cells: 18.6%
[2]; Tumor tissue, Data 5
  percentage of EpCAM+ H5+ epithelial cells: 36.0%
Human GzmB (hGzmB) [3]; 20 nM hGzmB
  time to complete cleavage: less than 30 min
Human GzmB (hGzmB) [3]; probe 25 μM (Ac-IEPD-AMC 50 μM), TRIS buffer, 37 °C, HPLC-UV
  HPLC conversion (20 nM hGzmB, 2 h): 100%
